What follows are molecules tested against T1, MC4 (Homo sapiens, UniProt P32245) (assay: GPCR radioligand binding (RLB) assay, melanocortin MC4, [125I]NDP-αMSH). Details: 4.0 Micromolar; Example Library 10.
T1 construct: purchased Perkin Elmer BioSignal; host or cells: HEK 293
T1 sequence (P32245 whole entry): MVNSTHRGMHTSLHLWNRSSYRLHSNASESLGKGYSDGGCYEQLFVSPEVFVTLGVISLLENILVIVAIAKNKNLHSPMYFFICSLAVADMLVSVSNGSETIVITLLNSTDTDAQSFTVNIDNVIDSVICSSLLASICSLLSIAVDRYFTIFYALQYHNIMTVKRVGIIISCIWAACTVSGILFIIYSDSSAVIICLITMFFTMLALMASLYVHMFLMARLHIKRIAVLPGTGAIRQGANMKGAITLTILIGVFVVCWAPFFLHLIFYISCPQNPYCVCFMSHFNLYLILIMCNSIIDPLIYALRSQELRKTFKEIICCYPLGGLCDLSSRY
In short: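 Membranes from HEK 293 cells expressing the recombinant human receptor were equilibrated with [125I]SST-14 (SST5) or [125I]NDP-αMSH (MC4), then compound added for an optimized incubation. Bound ligand separated by filtration on PEI-coated glass fiber and counted by liquid scintillation.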
With `NCCC(=O)N[C@H]1C(OCc2ccc(Cl)cc2)O[C@H](COCc2ccc3ccccc3c2)[C@@H](O)[C@@H]1OCc1ccccc1` (stereo partly drawn) [Compound 383] the “MC4 Inhibition at 4.0 Micromolar” value was “+ (Indicates inhibition greater than . . . 50%)”. With `NCCCC(=O)N[C@H]1C(OCc2ccc3ccccc3c2)O[C@H](COCc2ccc(Cl)cc2)[C@@H](O)[C@@H]1OCc1ccc(Cl)cc1` (single isomer, unassigned) [Compound 367] the “MC4 Inhibition at 4.0 Micromolar” value was “+ (Indicates inhibition greater than . . . 50%)”. With `NCCCC(=O)N[C@H]1C(OCc2ccc(Cl)cc2)O[C@H](COCc2ccccc2)[C@@H](O)[C@@H]1OCc1ccc2ccccc2c1` (single isomer, unassigned) [Compound 392] the “MC4 Inhibition at 4.0 Micromolar” value was “+ (Indicates inhibition greater than . . . 50%)”. `NCCCC(=O)N[C@H]1C(OCc2ccc(Cl)cc2)O[C@H](COCc2ccc3ccccc3c2)[C@@H](O)[C@@H]1OCc1ccc(Cl)cc1` (stereo partly drawn) [Compound 386] was tested, and the “MC4 Inhibition at 4.0 Micromolar” value was “+ (Indicates inhibition greater than . . . 50%)”.

Same assay, conditions: 4.0 Micromolar; Example Library 11
With `NCCCC(=O)NC1C(OCc2ccccc2)OC(COCc2ccc3ccccc3c2)C(O)C1OCc1ccc2ccccc2c1` (stereo not drawn) [Compound 408] the “MC4 Inhibition at 4.0 Micromolar” value was “+ (Indicates inhibition greater than . . . 50%)”. `NCCCC(=O)NC1C(OCc2ccccc2)OC(COCc2ccc(Cl)cc2)C(O)C1OCc1ccc2ccccc2c1` (stereo not drawn) [Compound 410] was tested, and the “MC4 Inhibition at 4.0 Micromolar” value was “+ (Indicates inhibition greater than . . . 50%)”. In the case of `NCCCC(=O)NC1C(OCc2ccc3ccccc3c2)OC(COCc2ccccc2)C(O)C1OCc1ccccc1` (stereo not drawn) [Compound 429], the “MC4 Inhibition at 4.0 Micromolar” value is reported as “+ (Indicates inhibition greater than . . . 50%)”.

Same assay, conditions: 4.0 Micromolar; Example Library 12
For `N=C(N)NCCC(=O)N[C@H]1C(OCc2ccccc2)O[C@H](COCc2ccc(Cl)cc2)[C@@H](O)[C@@H]1OCc1ccc(Cl)cc1` (stereo partly drawn) [Compound 450], the “MC4 Inhibition at 4.0 Micromolar” value was “+ (Indicates inhibition greater than . . . 50%)”. `N=C(N)NCC(=O)N[C@H]1C(OCc2ccccc2)O[C@H](COCc2ccc3ccccc3c2)[C@@H](O)[C@@H]1OCc1ccc2ccccc2c1` (stereo partly drawn) [Compound 437] was tested, and the “MC4 Inhibition at 4.0 Micromolar” value was “+ (Indicates inhibition greater than . . . 50%)”.

Same assay, conditions: 4.0 Micromolar; Example Library 13
`N=C(N)NCCC(=O)NC1C(OCc2ccc(Cl)cc2)OC(COCc2ccc(Cl)cc2)C(O)C1OCc1ccc(Cl)cc1` (stereo not drawn) [Compound 490] was tested, and the “MC4 Inhibition at 4.0 Micromolar” value was “+ (Indicates inhibition greater than . . . 50%)”.

Same assay, conditions: 10 micromolar compound; recombinant human receptor membranes (HEK 293)
For `COC1C(O)C(COCc2ccc(-c3ccccc3)cc2)OC(OCc2ccc(Cl)cc2)C1NC(=O)CNC(=N)N` (stereo not drawn) [Compound 83], the “MC4 inhibition at 10 micromolar” value was “+ (Indicates inhibition greater than . . . 50%)”. In the case of `COC1C(O)C(COCc2ccc(-c3ccccc3)cc2)OC(OCc2ccc3ccccc3c2)C1NC(=O)CNC(=N)N` (stereo not drawn) [Compound 67], the “MC4 inhibition at 10 micromolar” value is reported as “+ (Indicates inhibition greater than . . . 50%)”. With `COC1C(O)C(COCc2ccc(Cl)cc2)OC(OCc2ccccc2)C1NC(=O)CCCNC(=N)N` (stereo not drawn) [Compound 82] the “MC4 inhibition at 10 micromolar” value was “+ (Indicates inhibition greater than . . . 50%)”.

The molecules below were run against T2, SST5 (Homo sapiens, UniProt P35346) (assay: GPCR radioligand binding (RLB) assay, somatostatin SST5, [125I]SST-14). Details: 10 micromolar compound; Example Library 8.
T2 construct: purchased Perkin Elmer BioSignal; host or cells: HEK 293
T2 sequence (P35346 whole entry): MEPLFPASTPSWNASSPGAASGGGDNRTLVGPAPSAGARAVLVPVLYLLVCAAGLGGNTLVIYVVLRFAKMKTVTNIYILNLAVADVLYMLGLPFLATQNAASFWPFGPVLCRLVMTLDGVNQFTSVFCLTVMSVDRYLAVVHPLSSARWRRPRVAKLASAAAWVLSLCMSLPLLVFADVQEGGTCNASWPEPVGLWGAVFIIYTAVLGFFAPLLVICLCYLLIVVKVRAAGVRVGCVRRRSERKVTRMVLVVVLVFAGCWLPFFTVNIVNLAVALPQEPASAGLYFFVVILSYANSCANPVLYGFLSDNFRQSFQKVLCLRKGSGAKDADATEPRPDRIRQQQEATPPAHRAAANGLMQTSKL
Experimental: Recombinant human receptors expressed in HEK 293 cells were used for all experiments. Receptor membrane preparations were purchased from Perkin Elmer BioSignal. The labelled ligand used in somatostatin GPCR RLB assays was [^125I]SST-14 and in melanocortin assays was [^125I]NDP-αMSH. All assays were done in a 96-well plate format using either glass fiber filter mats or filter plates. All reagents purchased were of the highest quality.
Specific assay buffer, incubation and washing conditions were optimized for each receptor however they all followed the same general format. The procedures for both filter mat and filter plate formats are based on the receptor manufacturers recommendations or those described extensively in the literature. The procedures are briefly outlined below.
In assays where filter mats are used we incubate receptor membranes, assay buffer and [^125I] labelled ligand in 96 well microplates. Add compounds to incubation mixture and continue incubation for optimized period. Presoak Filter mat GF/B in 0.5% PEI for ˜2 hr at 4° C. On completion of assay mixture incubation add additional 100 μL/well of assay buffer immediately prior to filtration. Filter the assay mixture onto the GF/B filter mat using a cell harvester. Dry the filter mats prior to sealing them into a scintillation counting bag with scintillant. Radioactivity in each well is detected by liquid scintillation counting.
In assays where filter plates are used Multiscreen glass fiber filter plates (Millipore, Cat No MAFCNOB10) are precoated with 0.5% PEI for ˜2 hr at 4° C. All wells are then washed with 200 µl/well assay buffer and filtered using the Multiscreen Separation System. Subsequently receptor membranes, assay buffer and labelled ligands are added to the wells and equilibrated. Compounds for testing are then added to the mixture and incubation is continued for an optimized time. Plates are then put into the Multiscreen Separation System and the assay mixture is filtered through the plate under vacuum. Each well is then washed several times with assay buffer. Plates are then dried prior to putting sealing tape onto the bottom of the plate. Scintillant is added to each well and radioactivity measured by liquid scintillation counting.
Raw data was analysed according to standard methods using either GraphPad Prism software or IDDBS ActivityBase software.
In the case of `CSC1O[C@H](COCc2cccc(N)c2)[C@@H](O)[C@H](OCc2ccccc2)[C@H]1NC(=O)CCC1CNc2ccccc21` (stereo partly drawn) [Compound 337], the “SSTS inhibition at 10 micromolar” value is reported as “+ (Indicates inhibition greater than . . . 50%)”.

Same assay, conditions: 10 micromolar compound; recombinant human receptor membranes (HEK 293)
In the case of `COC[C@H]1OC(OCc2ccc(Cl)cc2)[C@H](NC(=O)CCNC(=N)N)[C@@H](OCc2ccc(Cl)cc2)[C@@H]1O` (stereo partly drawn) [Compound 17], the “SST5 inhibition at 10 micromolar” value is reported as “+ (Indicates inhibition greater than . . . 50%)”. For `CSC1OC(COCc2ccccc2)C(O)C(OCc2ccc(Cl)cc2)C1NC(=O)CN` (stereo not drawn) [Compound 143], the “SST5 inhibition at 10 micromolar” value was “+ (Indicates inhibition greater than . . . 50%)”. For `CO[C@H]1[C@H](O)[C@@H](COCc2cccc(O)c2)OC(OCc2ccc(Cl)cc2)[C@@H]1NC(=O)CCCN` (stereo partly drawn) [Compound 111], the “SST5 inhibition at 10 micromolar” value was “+ (Indicates inhibition greater than . . . 50%)”. For `COC[C@H]1OC(OCc2ccc(Cl)cc2)[C@H](NC(=O)CCCN)[C@@H](OCc2ccccc2)[C@@H]1O` (stereo partly drawn) [Compound 16], the “SST5 inhibition at 10 micromolar” value was “+ (Indicates inhibition greater than . . . 50%)”. `COC[C@H]1OC(OCCc2ccccc2)[C@H](NC(=O)CCCN)[C@@H](OCc2ccc3ccccc3c2)[C@@H]1O` (stereo partly drawn) [Compound 50] was tested, and the “SST5 inhibition at 10 micromolar” value was “+ (Indicates inhibition greater than . . . 50%)”. With `COC[C@H]1OC(OCc2ccccc2)[C@H](NC(=O)CCCN)[C@@H](OCc2ccc3ccccc3c2)[C@@H]1O` (stereo partly drawn) [Compound 54] the “SST5 inhibition at 10 micromolar” value was “+ (Indicates inhibition greater than . . . 50%)”. `COC[C@H]1OC(OCc2ccc3ccccc3c2)[C@H](NC(=O)CCCNC(=N)N)[C@@H](OCc2cccc(O)c2)[C@@H]1O` (stereo partly drawn) [Compound 24] was tested, and the “SST5 inhibition at 10 micromolar” value was “+ (Indicates inhibition greater than . . . 50%)”. In the case of `CSC1OC(COCc2ccc(-c3ccccc3)cc2)C(O)C(OCc2ccccc2)C1NC(=O)CN` (stereo not drawn) [Compound 131], the “SST5 inhibition at 10 micromolar” value is reported as “+ (Indicates inhibition greater than . . . 50%)”. `COC[C@H]1OC(OCc2cccc(O)c2)[C@H](NC(=O)CCNC(=N)N)[C@@H](OCc2ccc(-c3ccccc3)cc2)[C@@H]1O` (stereo partly drawn) [Compound 21] was tested, and the “SST5 inhibition at 10 micromolar” value was “+ (Indicates inhibition greater than . . . 50%)”. `CSC1OC(COCc2ccc(Cl)cc2)C(O)C(OCc2ccc(Cl)cc2)C1NC(=O)CCCN` (stereo not drawn) [Compound 153] was tested, and the “SST5 inhibition at 10 micromolar” value was “+ (Indicates inhibition greater than . . . 50%)”. For `COC[C@H]1OC(OCc2ccccc2)[C@H](NC(=O)CCCNC(=N)N)[C@@H](OCc2ccc(Cl)cc2)[C@@H]1O` (stereo partly drawn) [Compound 12], the “SST5 inhibition at 10 micromolar” value was “+ (Indicates inhibition greater than . . . 50%)”. For `CSC1OC(COCc2ccccc2)C(O)C(OCc2ccccc2)C1NC(=O)CN` (stereo not drawn) [Compound 119], the “SST5 inhibition at 10 micromolar” value was “+ (Indicates inhibition greater than . . . 50%)”. With `COC[C@H]1OC(OCc2ccccc2)[C@H](NC(=O)CCCN)[C@@H](OCc2ccccc2)[C@@H]1O` (stereo partly drawn) [Compound 9] the “SST5 inhibition at 10 micromolar” value was “+ (Indicates inhibition greater than . . . 50%)”. `CSC1OC(COCc2ccc(Cl)cc2)C(O)C(OCc2ccccc2)C1NC(=O)CN` (stereo not drawn) [Compound 125] was tested, and the “SST5 inhibition at 10 micromolar” value was “+ (Indicates inhibition greater than . . . 50%)”. With `COC[C@H]1OC(OCc2ccc(-c3ccccc3)cc2)[C@H](NC(=O)CCNC(=N)N)[C@@H](OCc2ccccc2)[C@@H]1O` (stereo partly drawn) [Compound 31] the “SST5 inhibition at 10 micromolar” value was “+ (Indicates inhibition greater than . . . 50%)”. For `CSC1OC(COC(=O)c2ccccc2)C(O)C(OCc2cccc(N)c2)C1NCc1ccc(Cl)cc1` (stereo not drawn) [Compound 312], the “SST5 inhibition at 10 micromolar” value was “+ (Indicates inhibition greater than . . . 50%)”. `COC[C@H]1OC(OCc2ccc(Cl)cc2)[C@H](NC(=O)CCCNC(=N)N)[C@@H](OCc2ccccc2)[C@@H]1O` (stereo partly drawn) [Compound 47] was tested, and the “SST5 inhibition at 10 micromolar” value was “+ (Indicates inhibition greater than . . . 50%)”.

Same assay, conditions: 10 micromolar; Example Library 4
In the case of `COCC1OC(OCc2ccc3ccccc3c2)C(NC(=O)CN)C(OCc2ccc(-c3ccccc3)cc2)C1O` (stereo not drawn) [Compound 296], the “SSTS inhibition at 10 micromolar” value is reported as “+ (Indicates inhibition greater than . . . 50%)”. For `COCC1OC(OCCc2ccccc2)C(NC(=O)CN)C(OCc2ccccc2)C1O` (stereo not drawn) [Compound 260], the “SSTS inhibition at 10 micromolar” value was “+ (Indicates inhibition greater than . . . 50%)”. In the case of `COCC1OC(OCc2ccccc2)C(NC(=O)CCCN)C(OCc2ccccc2)C1O` (stereo not drawn) [Compound 217], the “SSTS inhibition at 10 micromolar” value is reported as “+ (Indicates inhibition greater than . . . 50%)”. For `COCC1OC(OCc2ccccc2)C(NC(=O)CN)C(OCc2ccccc2)C1O` (stereo not drawn) [Compound 213], the “SSTS inhibition at 10 micromolar” value was “+ (Indicates inhibition greater than . . . 50%)”. In the case of `COCC1OC(OCc2ccc3ccccc3c2)C(NC(=O)CCCNC(=N)N)C(OCc2ccccc2)C1O` (stereo not drawn) [Compound 289], the “SSTS inhibition at 10 micromolar” value is reported as “+ (Indicates inhibition greater than . . . 50%)”.

Source: patent US7994140B2, “Classes of compounds that interact with GPCRs” (Alchemia Limited, priority 2002, dated 2011)
